The source of these data is patent US9988373B2, “Nitrogen-containing six-membered cyclic derivatives and pharmaceutical composition comprising the same” (SHIONOGI & CO., LTD., priority 2013, dated 2018).

The target in the test is T1, human P2X7 receptor (Homo sapiens, UniProt Q99572, R270H).
T1 construct: expressed in transfected cells
T1 sequence (Q99572 1-595 R270H): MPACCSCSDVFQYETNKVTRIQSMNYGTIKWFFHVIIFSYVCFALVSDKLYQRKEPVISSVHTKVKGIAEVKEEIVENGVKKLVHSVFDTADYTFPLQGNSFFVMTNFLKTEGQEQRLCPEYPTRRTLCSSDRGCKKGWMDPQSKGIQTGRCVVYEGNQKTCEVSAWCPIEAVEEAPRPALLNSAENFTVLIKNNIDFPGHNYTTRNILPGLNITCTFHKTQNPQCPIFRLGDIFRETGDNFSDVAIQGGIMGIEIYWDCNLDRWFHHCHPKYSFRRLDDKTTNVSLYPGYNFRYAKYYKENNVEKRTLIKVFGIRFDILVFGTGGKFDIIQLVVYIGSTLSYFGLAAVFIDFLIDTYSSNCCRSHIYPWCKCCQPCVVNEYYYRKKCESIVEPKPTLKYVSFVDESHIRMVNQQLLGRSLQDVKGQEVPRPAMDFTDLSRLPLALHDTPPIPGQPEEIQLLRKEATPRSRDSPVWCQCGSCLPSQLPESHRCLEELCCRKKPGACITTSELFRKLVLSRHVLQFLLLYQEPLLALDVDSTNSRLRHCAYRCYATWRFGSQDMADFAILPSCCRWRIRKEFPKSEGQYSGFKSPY
The test is described as follows: Evaluation of a human P2X7 receptor inhibitory activity (Yo-Pro uptake, BzATP stimulation, FLIPR TETRA). Type of test: cell-based. To be noted: antagonistic activity for the human P2X7 receptor, 1321N1 cell transfected with the human P2X7 receptor gene, Yo-Pro fluorescence. As to the method: Test Example 1 Evaluation of a Human P2X7 Receptor Inhibitory Activity
Stably expressing cell line (1321N1 cell transfected with the human P2X7 receptor gene (GenBank accession number NM_002562.5 including T606C and G952A SNP)) was used. The cells were seeded in a 384-well microtiter plate at a concentration of 8000 cells/well and cultured in the medium (10% fetal bovine serum, 25 mM HEPES, 1% penicillin and streptomycin in DMEM) for one day at 37° C. under 5% carbon dioxide atmosphere. After replacing with 20 μL of the HBSS buffer (20 mM HEPES. 55.6 mM D-glucose, 1×HBSS(−), pH 7.4-7.5), 15 μL of 17.3 μM Yo-Pro solution in the HBSS buffer was added. The plate was placed in high-throughput cellular screening system FLIPR TETRA (Molecullar Devices, LLC.) and 15 μL of 130 μM BzATP solution in the HBSS buffer was added. Measurement of fluorescence intensity by FLIPR TETRA was started. After eight minutes, 15 μL of DMSO solutions containing different concentrations of the compound of the present invention as prepared by dilution with the HBSS buffer were dispensed to each well through the built-in automatic dispenser, and the measurement of fluorescence intensity was continued for 20 minutes. The maximum fluorescence intensity without the compound of the present invention is calculated as 0% inhibition and the maximum fluorescence intensity when the reference compound was added is calculated as 100% inhibition. Changing values of fluorescence intensity by the compound of the present invention were calculated by difference between maximum and minimum fluorescence intensity for 20 minutes. Inhibition ratios (%) were calculated from the following equation:
[formula] IC50 was calculated using logistic approximation.

For `O=c1cc(-c2cccc(C(F)(F)F)c2Cl)n(Cc2ccccc2F)cc1Br` [Compound I-001], the IC50 – broadly, the concentration needed to halve the response being measured – is 67 nM. Compound `N#Cc1cn(Cc2ccccc2F)c(-c2cccc(C(F)(F)F)c2Cl)cc1=O` [Compound I-002] gave an IC50 (class symbols) of less than 50 nM. Take `N#Cc1cccc(Cn2cc(Br)c(=O)cc2-c2cccc(C(F)(F)F)c2Cl)c1` [Compound I-003]: the IC50 (class symbols) lay within 100 to 500 nM.

`N#Cc1cccc(Cn2cc(N3CCCC3)c(=O)cc2-c2cccc(C(F)(F)F)c2Cl)c1` [Compound I-004] displayed an IC50 (class symbols) of 500 to 1000 nM. On to `CC(=O)c1cn(Cc2cccc(C#N)c2)c(-c2cccc(C(F)(F)F)c2Cl)cc1=O` [Compound I-005], for which the half-maximal inhibitory concentration (IC50) (class symbols) lay within 500 to 1000 nM. On the same count and under the same terms, the same measure for `N#Cc1cccc(Cn2cc(N)c(=O)cc2-c2cccc(C(F)(F)F)c2Cl)c1` [Compound I-006]: 500 to 1000 nM; for `COc1cn(Cc2cccc(C#N)c2)c(-c2cccc(C(F)(F)F)c2Cl)cc1=O` [Compound I-007]: 100 to 500 nM. `O=c1cc(-c2cccc(C(F)(F)F)c2Cl)n(Cc2ccccc2)cc1Br` [Compound I-008] registered a concentration for half-maximal inhibition (IC50) (class symbols) of 100 to 500 nM. With `COc1cccc(Cn2cc(Br)c(=O)cc2-c2cccc(C(F)(F)F)c2Cl)c1` [Compound I-009], the IC50 (class symbols) was 100 to 500 nM. Compound `O=c1cc(-c2cccc(C(F)(F)F)c2Cl)n(Cc2cccc(F)c2)cc1Br` [Compound I-010] came in with an IC50 (class symbols) of 100 to 500 nM.

In the case of `O=c1cc(-c2cccc(C(F)(F)F)c2Cl)n(Cc2cccc(Cl)c2)cc1Br` [Compound I-011], the IC50 (class symbols) lay in the range of 100 to 500 nM. Same read-out and setting: with `CC(C)NC(=O)Nc1cccc(Cn2cc(Br)c(=O)cc2-c2cccc(C(F)(F)F)c2Cl)c1` [Compound I-012] the figure was 500 to 1000 nM; with `N#Cc1cccc(Cn2cc(Cl)c(=O)cc2-c2cccc(C(F)(F)F)c2Cl)c1` [Compound I-013], 100 to 500 nM; with `CC(=O)c1cn(Cc2ccccc2)c(-c2cccc(C(F)(F)F)c2Cl)cc1=O` [Compound I-014], 100 to 500 nM. As for `COc1cn(Cc2ccccc2)c(-c2cccc(C(F)(F)F)c2Cl)cc1=O` [Compound I-015], it took 44 nM to reach half-maximal inhibition (IC50). In the case of `Cc1ccccc1Cn1ccc(=O)cc1-c1cccc(Cl)c1Cl` [Compound I-016], the IC50 (class symbols) fell in the range of 100 to 500 nM. On the same count and under the same terms, with `O=c1ccn(Cc2ccc(F)cc2)c(-c2cccc(C(F)(F)F)c2Cl)c1` [Compound I-017] the figure was 500 to 1000 nM; with `Cc1ccccc1Cn1ccc(=O)cc1-c1cccc(C(F)(F)F)c1Cl` [Compound I-018], 50 to 100 nM. As to `O=c1ccn(Cc2ccccc2)c(-c2cccc(C(F)(F)F)c2Cl)c1` [Compound I-019], the IC50 (class symbols) lay in the range of 100 to 500 nM. With `O=c1ccn(Cc2ccc(F)cc2)c(-c2cccc(Cl)c2Cl)c1` [Compound I-020], half-maximal inhibition (IC50) required 810 nM.

In turn, `O=c1ccn(Cc2ccccc2)c(-c2cccc(Cl)c2Cl)c1` [Compound I-021] gave an IC50 (class symbols) of 500 to 1000 nM.

Where the note is “class symbols”, `O=c1ccn(Cc2ccccc2F)c(-c2cccc(C(F)(F)F)c2Cl)c1` [Compound I-022] came in with an IC50 of 100 to 500 nM. The compound `N#Cc1ccccc1Cn1ccc(=O)cc1-c1cccc(C(F)(F)F)c1Cl` [Compound I-023] registered an IC50 (class symbols) of 500 to 1000 nM. Turning to `N#Cc1cccc(Cn2ccc(=O)cc2-c2cccc(C(F)(F)F)c2Cl)c1` [Compound I-024], for the setting “class symbols”, the half-inhibitory concentration (IC50) fell in the range of 500 to 1000 nM. For the setting “class symbols”, `N#Cc1ccc(Cn2ccc(=O)cc2-c2cccc(C(F)(F)F)c2Cl)cc1` [Compound I-025] gave an IC50 of 1000 to 10000 nM. In the case of `O=c1ccn(Cc2ccccc2S(=O)(=O)N2CCOCC2)c(-c2cccc(C(F)(F)F)c2Cl)c1` [Compound I-026], where the note is “class symbols”, the IC50 is 1000 to 10000 nM. In the case of `O=c1ccn(Cc2cccc(F)c2)c(-c2cccc(C(F)(F)F)c2Cl)c1` [Compound I-027], the IC50 (class symbols) was 500 to 1000 nM. With `Cc1cccc(Cn2ccc(=O)cc2-c2cccc(C(F)(F)F)c2Cl)c1` [Compound I-028], the IC50 (class symbols) is 100 to 500 nM. `Cc1ccc(Cn2ccc(=O)cc2-c2cccc(C(F)(F)F)c2Cl)cc1` [Compound I-029]: the IC50 (class symbols) is 1000 to 10000 nM. With `O=c1ccn(Cc2ccccc2OC(F)(F)F)c(-c2cccc(C(F)(F)F)c2Cl)c1` [Compound I-030], under “class symbols”, the IC50 was 500 to 1000 nM.
